Source: ChEMBL document CHEMBL5244269, “Improving metabolic stability and removing aldehyde oxidase liability in a 5-azaquinazoline series of IRAK4 inhibitors” (Bioorg Med Chem, 2020)

Experiments:
Assay type in all cases: functional
[1] = test system: SUD4; assay: Growth inhibition of human SU-DHL-4 cells at 1.7 uM incubated for 3 days in presence of 0.17 uM acalabrutinib relative to control; details: SU-DHL-4, 72 h, time 3 day, read-out: GI
[2] = test system: OCI-Ly10; assay: Growth inhibition of human OCILY10 cells at 1.7 uM incubated for 3 days in presence of 0.017 uM acalabrutinib relative to control; details: OCI-Ly10, 72 h, time 3 day, read-out: GI
[3] = test system: SUD4; assay: Growth inhibition of human SU-DHL-4 cells at 0.33 uM incubated for 3 days in presence of 0.033 uM acalabrutinib relative to control; details: SU-DHL-4, 72 h, time 3 day, read-out: GI
[4] = test system: SUD4; assay: Growth inhibition of human SU-DHL-4 cells at 3.3 uM incubated for 3 days in presence of 0.17 uM acalabrutinib relative to control; details: SU-DHL-4, 72 h, time 3 day, read-out: GI
[5] = test system: OCI-Ly10; assay: Growth inhibition of human OCILY10 cells at 1.7 uM incubated for 3 days in presence of 0.33 uM acalabrutinib relative to control; details: OCI-Ly10, 72 h, time 3 day, read-out: GI
[6] = test system: OCI-Ly10; assay: Growth inhibition of human OCILY10 cells at 0.17 uM incubated for 3 days in presence of 0.017 uM acalabrutinib relative to control; details: OCI-Ly10, 72 h, time 3 day, read-out: GI
[7] = test system: SUD4; assay: Growth inhibition of human SU-DHL-4 cells at 1.7 uM incubated for 3 days in presence of 0.033 uM acalabrutinib relative to control; details: SU-DHL-4, 72 h, time 3 day, read-out: GI
[8] = test system: OCI-Ly10; assay: Growth inhibition of human OCILY10 cells at 0.17 uM incubated for 3 days in presence of 0.003 uM acalabrutinib relative to control; details: OCI-Ly10, 72 h, time 3 day, read-out: GI
[9] = test system: OCI-Ly10; assay: Growth inhibition of human OCILY10 cells at 3.3 uM incubated for 3 days in presence of 0.017 uM acalabrutinib relative to control; details: OCI-Ly10, 72 h, time 3 day, read-out: GI
[10] = test system: OCI-Ly10; assay: Growth inhibition of human OCILY10 cells at 0.33 uM incubated for 3 days in presence of 0.33 uM acalabrutinib relative to control; details: OCI-Ly10, 72 h, time 3 day, read-out: GI
[11] = test system: OCI-Ly10; assay: Growth inhibition of human OCILY10 cells at 3.3 uM incubated for 3 days in presence of 0.33 uM acalabrutinib relative to control; details: OCI-Ly10, 72 h, time 3 day, read-out: GI
[12] = test system: SUD4; assay: Growth inhibition of human SU-DHL-4 cells at 10 uM incubated for 3 days in presence of 0.017 uM acalabrutinib relative to control; details: SU-DHL-4, 72 h, time 3 day, read-out: GI
[13] = test system: SUD4; assay: Growth inhibition of human SU-DHL-4 cells at 1.7 uM incubated for 3 days in presence of 0.017 uM acalabrutinib relative to control; details: SU-DHL-4, 72 h, time 3 day, read-out: GI
[14] = test system: OCI-Ly10; assay: Growth inhibition of human OCILY10 cells at 3.3 uM incubated for 3 days in presence of 0.17 uM acalabrutinib relative to control; details: OCI-Ly10, 72 h, time 3 day, read-out: GI
[15] = test system: SUD4; assay: Growth inhibition of human SU-DHL-4 cells at 0.17 uM incubated for 3 days in presence of 0.003 uM acalabrutinib relative to control; details: SU-DHL-4, 72 h, time 3 day, read-out: GI
[16] = test system: OCI-Ly10; assay: Growth inhibition of human OCILY10 cells at 0.33 uM incubated for 3 days in presence of 0.017 uM acalabrutinib relative to control; details: OCI-Ly10, 72 h, time 3 day, read-out: GI
[17] = test system: SUD4; assay: Growth inhibition of human SU-DHL-4 cells at 3.3 uM incubated for 3 days in presence of 0.33 uM acalabrutinib relative to control; details: SU-DHL-4, 72 h, time 3 day, read-out: GI
[18] = test system: SUD4; assay: Growth inhibition of human SU-DHL-4 cells at 0.33 uM incubated for 3 days in presence of 0.33 uM acalabrutinib relative to control; details: SU-DHL-4, 72 h, time 3 day, read-out: GI
[19] = test system: SUD4; assay: Growth inhibition of human SU-DHL-4 cells at 0.33 uM incubated for 3 days in presence of 0.003 uM acalabrutinib relative to control; details: SU-DHL-4, 72 h, time 3 day, read-out: GI
[20] = test system: SUD4; assay: Growth inhibition of human SU-DHL-4 cells at 0.33 uM incubated for 3 days in presence of 0.017 uM acalabrutinib relative to control; details: SU-DHL-4, 72 h, time 3 day, read-out: GI
[21] = test system: OCI-Ly10; assay: Growth inhibition of human OCILY10 cells at 1.7 uM incubated for 3 days in presence of 0.003 uM acalabrutinib relative to control; details: OCI-Ly10, 72 h, time 3 day, read-out: GI
[22] = test system: OCI-Ly10; assay: Growth inhibition of human OCILY10 cells at 10 uM incubated for 3 days in presence of 0.033 uM acalabrutinib relative to control; details: OCI-Ly10, 72 h, time 3 day, read-out: GI
[23] = test system: SUD4; assay: Growth inhibition of human SU-DHL-4 cells at 1.7 uM incubated for 3 days in presence of 0.003 uM acalabrutinib relative to control; details: SU-DHL-4, 72 h, time 3 day, read-out: GI
[24] = test system: SUD4; assay: Growth inhibition of human SU-DHL-4 cells at 0.17 uM incubated for 3 days in presence of 0.17 uM acalabrutinib relative to control; details: SU-DHL-4, 72 h, time 3 day, read-out: GI
[25] = test system: SUD4; assay: Growth inhibition of human SU-DHL-4 cells at 1.7 uM incubated for 3 days in presence of 0.33 uM acalabrutinib relative to control; details: SU-DHL-4, 72 h, time 3 day, read-out: GI
[26] = test system: SUD4; assay: Growth inhibition of human SU-DHL-4 cells at 3.3 uM incubated for 3 days in presence of 0.017 uM acalabrutinib relative to control; details: SU-DHL-4, 72 h, time 3 day, read-out: GI
[27] = test system: OCI-Ly10; assay: Growth inhibition of human OCILY10 cells at 1.7 uM incubated for 3 days in presence of 0.033 uM acalabrutinib relative to control; details: OCI-Ly10, 72 h, time 3 day, read-out: GI
[28] = test system: SUD4; assay: Growth inhibition of human SU-DHL-4 cells at 0.17 uM incubated for 3 days in presence of 0.33 uM acalabrutinib relative to control; details: SU-DHL-4, 72 h, time 3 day, read-out: GI
[29] = test system: OCI-Ly10; assay: Growth inhibition of human OCILY10 cells at 10 uM incubated for 3 days in presence of 0.017 uM acalabrutinib relative to control; details: OCI-Ly10, 72 h, time 3 day, read-out: GI
[30] = test system: OCI-Ly10; assay: Growth inhibition of human OCILY10 cells at 10 uM incubated for 3 days in presence of 0.33 uM acalabrutinib relative to control; details: OCI-Ly10, 72 h, time 3 day, read-out: GI
[31] = test system: SUD4; assay: Growth inhibition of human SU-DHL-4 cells at 10 uM incubated for 3 days in presence of 0.17 uM acalabrutinib relative to control; details: SU-DHL-4, 72 h, time 3 day, read-out: GI
[32] = test system: OCI-Ly10; assay: Growth inhibition of human OCILY10 cells at 0.17 uM incubated for 3 days in presence of 0.033 uM acalabrutinib relative to control; details: OCI-Ly10, 72 h, time 3 day, read-out: GI
[33] = test system: SUD4; assay: Growth inhibition of human SU-DHL-4 cells at 3.3 uM incubated for 3 days in presence of 0.033 uM acalabrutinib relative to control; details: SU-DHL-4, 72 h, time 3 day, read-out: GI
[34] = test system: SUD4; assay: Growth inhibition of human SU-DHL-4 cells at 0.17 uM incubated for 3 days in presence of 0.033 uM acalabrutinib relative to control; details: SU-DHL-4, 72 h, time 3 day, read-out: GI
[35] = test system: SUD4; assay: Growth inhibition of human SU-DHL-4 cells at 0.17 uM incubated for 3 days in presence of 0.017 uM acalabrutinib relative to control; details: SU-DHL-4, 72 h, time 3 day, read-out: GI
[36] = test system: SUD4; assay: Growth inhibition of human SU-DHL-4 cells at 3.3 uM incubated for 3 days in presence of 0.003 uM acalabrutinib relative to control; details: SU-DHL-4, 72 h, time 3 day, read-out: GI
[37] = test system: OCI-Ly10; assay: Growth inhibition of human OCILY10 cells at 3.3 uM incubated for 3 days in presence of 0.003 uM acalabrutinib relative to control; details: OCI-Ly10, 72 h, time 3 day, read-out: GI
[38] = test system: OCI-Ly10; assay: Growth inhibition of human OCILY10 cells at 0.33 uM incubated for 3 days in presence of 0.17 uM acalabrutinib relative to control; details: OCI-Ly10, 72 h, time 3 day, read-out: GI
[39] = test system: OCI-Ly10; assay: Growth inhibition of human OCILY10 cells at 0.17 uM incubated for 3 days in presence of 0.33 uM acalabrutinib relative to control; details: OCI-Ly10, 72 h, time 3 day, read-out: GI
[40] = test system: OCI-Ly10; assay: Growth inhibition of human OCILY10 cells at 1.7 uM incubated for 3 days in presence of 0.17 uM acalabrutinib relative to control; details: OCI-Ly10, 72 h, time 3 day, read-out: GI
[41] = test system: SUD4; assay: Growth inhibition of human SU-DHL-4 cells at 10 uM incubated for 3 days in presence of 0.003 uM acalabrutinib relative to control; details: SU-DHL-4, 72 h, time 3 day, read-out: GI

CC[C@@H]1[C@H](F)C(=O)N[C@@H]1COc1nccc2cc(C(N)=O)c(OC)cc12 [ZIMLOVISERTIB]
inhibition of growth at 1.7 µM [1]: 3% | inhibition of growth at 1.7 µM [2]: 89% | inhibition of growth at 0.33 µM [3]: 1% | inhibition of growth at 3.3 µM [4]: 3% | inhibition of growth at 1.7 µM [5]: 170% | inhibition of growth at 0.17 µM [6]: 93% | inhibition of growth at 1.7 µM [7]: 1% | inhibition of growth at 0.17 µM [8]: 22% | inhibition of growth at 3.3 µM [9]: 95% | inhibition of growth at 0.33 µM [10]: 172% | inhibition of growth at 3.3 µM [11]: 170% | inhibition of growth at 10 µM [12]: 3% | inhibition of growth at 1.7 µM [13]: 2% | inhibition of growth at 3.3 µM [14]: 170% | inhibition of growth at 0.17 µM [15]: 1% | inhibition of growth at 0.33 µM [16]: 92% | inhibition of growth at 3.3 µM [17]: 6% | inhibition of growth at 0.33 µM [18]: 6% | inhibition of growth at 0.33 µM [19]: 1% | inhibition of growth at 0.33 µM [20]: 1% | inhibition of growth at 1.7 µM [21]: 26% | inhibition of growth at 10 µM [22]: 155% | inhibition of growth at 1.7 µM [23]: 2% | inhibition of growth at 0.17 µM [24]: 2% | inhibition of growth at 1.7 µM [25]: 6% | inhibition of growth at 3.3 µM [26]: 2% | inhibition of growth at 1.7 µM [27]: 139% | inhibition of growth at 0.17 µM [28]: 6% | inhibition of growth at 10 µM [29]: 140% | inhibition of growth at 10 µM [30]: 177% | inhibition of growth at 10 µM [31]: 3% | inhibition of growth at 0.17 µM [32]: 142% | inhibition of growth at 3.3 µM [33]: 2% | inhibition of growth at 0.17 µM [34]: 1% | inhibition of growth at 0.17 µM [35]: 1% | inhibition of growth at 3.3 µM [36]: 2% | inhibition of growth at 3.3 µM [37]: 36% | inhibition of growth at 0.33 µM [38]: 171% | inhibition of growth at 0.17 µM [39]: 171% | inhibition of growth at 1.7 µM [40]: 170% | inhibition of growth at 10 µM [41]: 2%
